What all share (test): KINOMEscan competition binding
Holding throughout (conditions): compound 10.0 µM

Assay [1] deals with EGFR (human), P00533 [747-751 del / S ins].
For assay [2], the system named is RET (human), P07949 [M918T].
In assay [3] the test system is FLT3 (human), P36888 [R834Q].
The subject of assay [4] is KIT (human), P10721 [V559D/V654A].
Assay [5] relates to FLT3 (human), P36888 [D835H].
Assay [6] concerns RET (human), P07949 [V804M].
The test system of assay [7] is EGFR (human), P00533 [T790M].
Assay [8] deals with KIT (human), P10721 [L576P].
Chain of KIT (human), P10721 [L576P] (P10721 whole entry L576P, looked up): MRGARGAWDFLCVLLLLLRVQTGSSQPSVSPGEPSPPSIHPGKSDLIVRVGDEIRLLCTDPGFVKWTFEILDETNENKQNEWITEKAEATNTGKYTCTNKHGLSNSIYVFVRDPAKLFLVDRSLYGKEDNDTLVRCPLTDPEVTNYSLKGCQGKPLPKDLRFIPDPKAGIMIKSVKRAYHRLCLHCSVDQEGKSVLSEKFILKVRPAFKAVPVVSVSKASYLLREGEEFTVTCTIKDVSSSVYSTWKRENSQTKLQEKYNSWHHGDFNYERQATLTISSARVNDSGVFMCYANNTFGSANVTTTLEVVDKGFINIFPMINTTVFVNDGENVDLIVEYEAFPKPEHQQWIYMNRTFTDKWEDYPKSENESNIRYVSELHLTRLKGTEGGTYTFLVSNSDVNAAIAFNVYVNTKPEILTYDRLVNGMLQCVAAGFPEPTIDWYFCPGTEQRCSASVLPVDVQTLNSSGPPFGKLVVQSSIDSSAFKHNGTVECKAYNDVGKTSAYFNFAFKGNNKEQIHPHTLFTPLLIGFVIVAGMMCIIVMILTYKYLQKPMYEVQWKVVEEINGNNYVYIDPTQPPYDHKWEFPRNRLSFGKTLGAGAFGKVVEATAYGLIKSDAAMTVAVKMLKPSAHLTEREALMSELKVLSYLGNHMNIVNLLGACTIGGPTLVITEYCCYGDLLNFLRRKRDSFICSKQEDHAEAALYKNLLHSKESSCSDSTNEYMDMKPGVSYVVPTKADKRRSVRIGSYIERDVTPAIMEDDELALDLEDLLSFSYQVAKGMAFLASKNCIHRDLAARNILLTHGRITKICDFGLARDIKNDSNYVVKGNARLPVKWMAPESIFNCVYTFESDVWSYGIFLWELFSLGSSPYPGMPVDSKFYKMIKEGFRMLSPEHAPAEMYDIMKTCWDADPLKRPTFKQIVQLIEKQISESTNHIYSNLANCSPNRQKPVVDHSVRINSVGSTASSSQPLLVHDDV
Assay [9] deals with MET (human), P08581 [Y1235D].
The subject of assay [10] is ABL1 (human), P00519 [Y253F].
Assay [11] has as its system EGFR (human), P00533 [752-759 del].
Assay [12] has as its system EGFR (human), P00533 [T790M/L858R].
For assay [13], the system named is ABL1 (human), P00519 [H396P].

This passage reports kinase still bound, per cent of control results from the kinase profiling compilation of Christmann-Franck et al. (2016).

Structures are written as SMILES.

Chain of KIT (human), P10721 [V559D/V654A] (P10721 whole entry V559D/V654A, looked up): as the sequence (P10721 whole entry L576P, looked up) above, with V559D, P576L, V654A counted along it
Chain of RET (human), P07949 [M918T] (P07949 whole entry M918T, looked up): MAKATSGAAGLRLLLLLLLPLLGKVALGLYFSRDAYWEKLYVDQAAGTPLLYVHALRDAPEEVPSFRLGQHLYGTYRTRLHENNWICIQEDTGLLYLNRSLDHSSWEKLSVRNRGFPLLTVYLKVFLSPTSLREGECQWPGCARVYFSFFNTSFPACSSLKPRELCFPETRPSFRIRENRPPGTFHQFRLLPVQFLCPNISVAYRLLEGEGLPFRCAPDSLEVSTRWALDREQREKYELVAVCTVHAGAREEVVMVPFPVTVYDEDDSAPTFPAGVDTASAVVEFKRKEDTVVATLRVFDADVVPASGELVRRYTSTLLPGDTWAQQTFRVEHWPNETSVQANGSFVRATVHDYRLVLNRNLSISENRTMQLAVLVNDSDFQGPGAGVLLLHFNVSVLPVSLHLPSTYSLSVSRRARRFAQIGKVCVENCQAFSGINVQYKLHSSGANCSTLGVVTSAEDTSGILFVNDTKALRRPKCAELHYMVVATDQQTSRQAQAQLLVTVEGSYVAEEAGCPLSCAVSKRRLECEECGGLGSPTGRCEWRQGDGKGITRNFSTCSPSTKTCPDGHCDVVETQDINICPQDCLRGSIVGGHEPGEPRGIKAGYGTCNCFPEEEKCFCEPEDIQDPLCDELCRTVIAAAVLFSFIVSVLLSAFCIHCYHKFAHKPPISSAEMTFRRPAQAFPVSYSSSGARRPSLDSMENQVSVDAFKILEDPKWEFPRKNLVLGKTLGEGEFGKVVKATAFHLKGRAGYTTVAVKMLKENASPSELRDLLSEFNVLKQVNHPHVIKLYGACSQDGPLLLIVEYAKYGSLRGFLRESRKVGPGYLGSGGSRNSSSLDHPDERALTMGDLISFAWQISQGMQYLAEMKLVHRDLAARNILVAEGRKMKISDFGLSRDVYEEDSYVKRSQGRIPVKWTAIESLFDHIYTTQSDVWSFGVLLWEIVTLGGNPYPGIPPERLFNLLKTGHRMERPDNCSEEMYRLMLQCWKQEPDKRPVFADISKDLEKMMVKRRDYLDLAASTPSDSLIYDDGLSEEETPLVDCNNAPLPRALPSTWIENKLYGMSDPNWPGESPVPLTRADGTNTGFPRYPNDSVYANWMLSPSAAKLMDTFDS
Chain of RET (human), P07949 [V804M] (P07949 whole entry V804M, looked up): as the sequence (P07949 whole entry M918T, looked up) above, with V804M, T918M counted along it

`CNC(=O)Nc1ccc(-c2nc(N3CC4CCC(C3)O4)c3cnn(C4CCC5(CC4)OCCO5)c3n2)cc1`: the kinase still bound, per cent of control was 50% in assay [1]; 73% in assay [2]; 79% in assay [3]; 100% in assay [4]; 82% in [5]; 100% in [6]. The kinase still bound, per cent of control was 68% in assay [7]; 85% in assay [8]; 24% in [9]; 99% in [10]; 55% in assay [11]; 100% in [12].

Take `Nc1ccc(-c2ccc3ncc4ccc(=O)n(-c5cccc(C(F)(F)F)c5)c4c3c2)cn1`: the kinase still bound, per cent of control in assay [1] was found to be 67%; in [2] it was 79%; in assay [3], 32%; in [4], 100%; in [5], 16%; in assay [6], 100%. Moreover, the kinase still bound, per cent of control in assay [7] amounted to 100%; in [8], 51%; in assay [9], 98%; in assay [10], 87%; in assay [11], 70%; in assay [12] it was 100%.

For the compound `C=CC(=O)Nc1ccc(C(=O)c2sc(Nc3ccc(N4CCN(C)CC4)cc3OC)nc2N)cc1`, the kinase still bound, per cent of control in [1] was 41%; in assay [2], 100%; in assay [3] it was 100%; in assay [4], 100%; in assay [5] it was 59%; in assay [6], 100%. Besides, the kinase still bound, per cent of control worked out at 27% in assay [7]; 81% in [8]; 100% in [9]; 97% in [10]; 53% in assay [11]; 68% in assay [12].

Regarding `O=C1Nc2ccc(I)cc2/C1=C/c1cc(Br)c(O)c(Br)c1`, the kinase still bound, per cent of control in assay [1] turned out to be 50%; in assay [2], 100%; in assay [3], 100%; in assay [4], 5.7%; in [5], 40%; in assay [6] it was 100%. Also, the kinase still bound, per cent of control in assay [7] was 65%; in assay [8], 6.6%; in [9], 72%; in assay [10], 81%; in assay [11], 35%; in assay [12], 98%.

In the case of `Cc1ccc(NC(=O)c2cccc(C(C)(C)C#N)c2)cc1Nc1ccc2ncn(C)c(=O)c2c1`, the kinase still bound, per cent of control came to 14% in [1]; 0.4% in assay [2]; 100% in assay [3]; 1.2% in assay [4]; 60% in assay [5]; 0.15% in assay [6]. Also, the kinase still bound, per cent of control in [7] was found to be 79%; in assay [8], 0.55%; in assay [9], 100%; in [10] it was 1.4%; in assay [11], 17%; in [12], 99%.

For the compound `C[C@@H](Oc1cc(-n2cnc3ccc(CN4CCN(C)CC4)cc32)sc1C(N)=O)c1ccccc1C(F)(F)F`, the kinase still bound, per cent of control was determined as 100% in assay [1]; 100% in assay [2]; 20% in assay [3]; 100% in assay [4]; 10% in [5]; 100% in assay [6]. Further, the kinase still bound, per cent of control in [7] was found to be 54%; in assay [8], 54%; in assay [9] it was 98%; in assay [10] it was 69%; in assay [11], 100%; in assay [12], 78%.

Consider `N#Cc1cc(-c2ccnc(Nc3ccc(-n4cnc(-c5cccnc5)n4)cc3)n2)cc(N2CCOCC2)c1`, for which the kinase still bound, per cent of control worked out at 79% in assay [1]; 100% in assay [2]; 58% in [3]; 42% in [4]; 21% in assay [5]; 100% in assay [6]. Also, the kinase still bound, per cent of control was determined as 86% in assay [7]; 17% in assay [8]; 14% in assay [9]; 84% in [10]; 87% in [11]; 97% in [12].

On to `COc1cc(N2CCN(C)CC2)ccc1Nc1nc(N)c(C(=O)c2c(Cl)cccc2Cl)s1`, for which the kinase still bound, per cent of control was 91% in assay [1]; 100% in [2]; 100% in [3]; 94% in [4]; 99% in assay [5]; 100% in assay [6]. In addition, the kinase still bound, per cent of control in assay [7] stood at 100%; in assay [8], 100%; in [9] it was 100%; in [10], 98%; in assay [11], 89%; in assay [12], 100%.

In the case of `CCN1CCN(Cc2ccc(Nc3ncc4c(n3)N(C)c3ccccc3C(=O)N4C)cc2C(F)(F)F)CC1`, the kinase still bound, per cent of control was found to be 95% in assay [1]; 0.6% in assay [2]; 69% in assay [3]; 100% in assay [4]; 8.8% in [5]; 1.2% in assay [6]. Besides, the kinase still bound, per cent of control came out at 100% in [7]; 46% in assay [8]; 86% in [9]; 0.1% in [10]; 98% in assay [11]; 90% in assay [12].

For the compound `CCN1CCN(Cc2ccc(NC(=O)c3ccc(C)c(/C=C/c4cnc5[nH]ccc5c4OC)c3)cc2C(F)(F)F)CC1`, the kinase still bound, per cent of control is 0% in [1]; 0% in [2]; 50% in assay [3]; 2.6% in assay [4]; 0.15% in assay [5]; 0% in [6]. The kinase still bound, per cent of control in [7] turned out to be 9.9%; in assay [8] it was 0%; in [9], 79%; in assay [10] it was 0.25%; in assay [11], 0%; in assay [12], 77%.

Turning to `CC[C@@H]1C(=O)N(C)c2cnc(Nc3ccc(C(=O)NC4CCN(C)CC4)cc3OC)nc2N1C1CCCC1`, the kinase still bound, per cent of control in assay [2], in [4], in [5], in assay [6], in [10] and in assay [13] was 100% in each case.

`C=CC(=O)Nc1cc(NC(=O)c2ccc(C)c(NC(=O)c3ccno3)c2)cc(C(F)(F)F)c1`: the kinase still bound, per cent of control in assay [1] worked out at 100%; in assay [2], 100%; in assay [3] it was 100%; in assay [4] it was 23%; in assay [5], 100%; in assay [6], 100%. In addition, the kinase still bound, per cent of control in assay [7] came to 100%; in assay [8], 2.3%; in assay [9], 100%; in assay [10], 63%; in assay [11], 100%; in [12], 97%.

On to `CN(C)C/C=C/C(=O)Nc1cccc(Nc2ncc3c(n2)N(C)c2ccccc2C(=O)N3C)c1`, for which the kinase still bound, per cent of control in assay [1] amounted to 77%; in assay [2], 0.55%; in assay [3] it was 37%; in assay [4], 96%; in assay [5] it was 5.3%; in [6], 0.15%. Also, the kinase still bound, per cent of control was 43% in assay [7]; 33% in assay [8]; 77% in assay [9]; 0% in assay [10]; 74% in assay [11]; 86% in [12].
